Assay results taken from patent US20250040548A1, “Herbicidal compositions comprising saflufenacil” (BASF SF, priority 2023, published 2025).

Assays:
SETFA = assay: Post-emergence application in greenhouse trials; assay type: in vivo, Setaria faberi; settings: 7 DAT, growth stage 13, 1% MSO
Description: (§1) In the examples below, using the method of S. R. Colby (1967) “Calculating synergistic and antagonistic responses of herbicide combinations”, Weeds 15, p. 22ff., the value E, which is expected if the activity of the individual active compounds is only additive, was calculated.
(§2) [formula] • where • X=percent activity using active herbicide A at an application rate a; • Y=percent activity using active saflufenacil at an application rate b; • E=expected activity (in %) by A+B at application rates a+b.
(§3) If the value found experimentally is higher than the value E calculated according to Colby, a synergistic effect is present.
(§4) The culture containers used were plastic pots containing loamy sand with approximately 3.0% of humus as substrate. The seeds of the test plants were sown separately for each species.
(§5) For the post-emergence treatment, the test plants were grown to a plant height of from 3 to 15 cm, depending on the plant habit, and only then treated with the active compounds which had been suspended or emulsified in water. To this end, the test plants were either sown directly, and grown in the same containers, or they were first grown separately as seedlings and transplanted into the test containers a few days prior to treatment.
(§6) Depending on the species, the plants were kept at 10-25° C. and 20-35° C., respectively.
(§7) The test period extended over 2 to 4 weeks. During this time, the plants were tended and their response to the individual treatments was evaluated.
(§8) Evaluation was carried out using a scale from 0 to 100. 100 means no emergence of the plants, or complete destruction of at least the above-ground parts, and 0 means no damage or normal course of growth. A good herbicidal activity is given at values of at least 70, and very good herbicidal activity is given at values of at least 85.
(§9) Unless indicated otherwise, herbicide A and saflufenacil were formulated (50 g/I) and applied with addition of 1% MSO (methylated seed oil) as adjuvant. In the greenhouse trials, the solvent used was water (200 I/ha).

ECHCG [1] = assay: Post-emergence application in greenhouse trials; assay type: in vivo, Echinocloa crus-galli; settings: B-1 3.12 g ai/ha, growth stage 13, saflufenacil as commercial 342 g/l SC formulation
Description: as §1, §2, §3, §4, §5, §6, §7, §8, §9

CHEAL = assay: Post-emergence application in greenhouse trials; assay type: in vivo, Chenopodium album; settings: B-1 3.12 g ai/ha, 21 DAT, growth stage 51, saflufenacil as commercial 342 g/l SC formulation
Description: as §1, §2, §3, §4
For the post-emergence treatment, the test plants were grown to a plant height of from 3 to 15 cm, depending on the plant habit, and only then treated with the active compounds which had been suspended or emulsified in water. To this end, the test plants were either sown directly, and grown in the same containers, or they were first grown separately as seedlings and transplanted into the test containers a few days prior to treatment. […]
The test period extended over 2 to 4 weeks. During this time, the plants were tended and their response to the individual treatments was evaluated. […]

ERICA [2] = assay: Post-emergence application in greenhouse trials; assay type: in vivo, Erigeron canadensis; settings: B-1 3.12 g ai/ha, 21 DAT, growth stage 31, saflufenacil as commercial 342 g/l SC formulation
Description: as §1, §2, §3, §4, §5, §6, §7, §8, §9

AVEFA = assay: Post-emergence application in field trials (Examples 2 and 3); assay type: in vivo, Avena fatua; settings: 1% v/v MSO
Description: as §1, §2, §3
(§10) On field test sites, natural weed infestation or seeded weeds were treated post-emergence of the weeds.
(§11) For the post emergence treatment, the weedy plants were treated as indicated below. The herbicidal compositions were, together with the adjuvant(s) as indicated, suspended or emulsified in water (200 l/ha unless indicated otherwise) as distribution medium and sprayed with commercial flat fan nozzles.
(§12) In the following experiments, the herbicidal activity for the individual herbicidal compositions (solo and mixture applications) was assessed the indicated days after treatment (DAT). The assessments for the damage on undesired weeds caused by the composition was carried out using a scale from 0 to 100%, compared to the untreated control plants. Here, 0 means no damage and 100 means complete destruction of the plants.
(§13) For the post emergence treatment, the weedy plants were treated as indicated below. The herbicidal compositions were, together with the adjuvant(s) as indicated, suspended or emulsified in water (200 I/ha unless indicated otherwise) as distribution medium and sprayed with commercial flat fan nozzles.

AVEST = assay: as above; assay type: in vivo, Avena stirilis; settings: growth stage 12-22, B-1 solo 25 g ai/ha, 14 DAT, 1% v/ MSO
Description: as §1, §2, §3, §10, §11
(§14) In the following experiments, the herbicidal activity for the individual herbicidal compositions (solo and mixture applications) was assessed the indicated days after treatment (DAT). The assessments for the damage on undesired weeds caused by the composition was carried out using a scale from 0 to 100%, compared to the untreated control plants. […]

ECHCG [3] = assay: as above; assay type: in vivo, Echinocloa crus-galli
Description: as §1, §2, §3, §10, §11, §12, §13

ELEIN = assay: as above; assay type: in vivo, Eleusine indica
Description: as §1, §2, §3, §10, §11, §12, §13

EPHHL = assay: as above; assay type: in vivo, Euphorbia heterophylla; settings: B-1 25 g ai/ha, 21 DAT, growth stage 12-16, height 5-15 cm, 0.5% MSO
Description: as §1, §2, §3, §10, §11, §14

ERICA [4] = assay: as above; assay type: in vivo, Erigeron canadensis; settings: 21 DAT
Description: as §1, §2, §3, §10, §11, §12, §13

POAAN = assay: as above; assay type: in vivo, Poa annua
Description: as §1, §2, §3, §10, §11, §12, §13

SETIT = assay: as above; assay type: in vivo, Setaria italica; settings: height 21-31 cm, B-1 solo 25 g ai/ha, 22 DAT, 1% v/v MSO
Description: as §1, §2, §3, §10, §11, §14

[5] = system: SORVU* (non-PPOi herbicide tolerant); assay: as above; assay type: in vivo, Sorghum vulgare
Description: as §1, §2, §3, §10, §11, §12, §13

STEME = assay: as above; assay type: in vivo, Stellaria media; settings: B-1 12.5 g ai/ha, 21 DAT, growth stage 63-67, height 7-18 cm, 140 l/ha water, 1% MSO + 2.5% ammoniumsulfate
Description: as §1, §2, §3, §10, §11, §14

## CC(C)N(C)S(=O)(=O)NC(=O)c1cc(-n2c(=O)cc(C(F)(F)F)n(C)c2=O)c(F)cc1Cl [B-1, saflufenacil]
SETFA; B-1 0.5 g ai/ha
  % Herbicidal activity: 10%
SETFA; B-1 0.8 g ai/ha
  % Herbicidal activity: 15%
SETFA; B-1 0.9 g ai/ha
  % Herbicidal activity: 15%
SETFA; B-1 1.1 g ai/ha
  % Herbicidal activity: 35%
ECHCG [1]; 7 DAT
  % Herbicidal activity: 65%
ECHCG [1]; 21 DAT
  % Herbicidal activity: 40%
CHEAL
  % Herbicidal activity: 85%
ERICA [2]
  % Herbicidal activity: 30%
AVEFA; AVEFA, growth stage 15-16, height 25-38 cm, B-1 solo 25 g ai/ha, 16 DAT
  % Herbicidal activity: 3%
AVEFA; B-1 18 g ai/ha, 28 DAT, growth stage 14-15, height 9-16 cm, field, 100 l/ha water
  % Herbicidal activity: 0%
AVEFA; B-1 18 g ai/ha, 29 DAT, growth stage 14-23, height 24-40 cm, field, 100 l/ha water
  % Herbicidal activity: 0%
AVEST
  % Herbicidal activity: 0%
ECHCG [3]; B-1 12.5 g ai/ha, 14 DAT, growth stage 14-19, height 2-8 cm, field, 140 l/ha water, 1% MSO + 2.5% ammoniumsulfate
  % Herbicidal activity: 40%
ECHCG [3]; B-1 25 g ai/ha, 21 DAT, height 12.5-30 cm, field, 1% v/v MSO and 1% w/v ammoniumsulfate
  % Herbicidal activity: 23%
ECHCG [3]; ECHCG, growth stage 21-23, height 43-44 cm, B-1 solo 25 g ai/ha, 21 DAT, 1% Dash ® HC
  % Herbicidal activity: 27%
ELEIN; B-1 12.5 g ai/ha, 21 DAT, height 1-15 cm, 140 l/ha water, 1% MSO + 2.5% ammoniumsulfate
  % Herbicidal activity: 19%
ELEIN; B-1 25 g ai/ha, 19 DAT, growth stage 24, 0.5% MSO
  % Herbicidal activity: 0%
ELEIN; B-1 25 g ai/ha, 21 DAT, height 7-10 cm, 1% v/v MSO and 1% w/v ammoniumsulfate
  % Herbicidal activity: 0%
ELEIN; B-1 25 g ai/ha, 21 DAT, height 15-20 cm, 1% v/v MSO and 1% w/v ammoniumsulfate
  % Herbicidal activity: 0%
EPHHL
  % Herbicidal activity: 5%
ERICA [4]; B-1 6.25 g ai/ha, height 12.5-25 cm, field, 140 l/ha water, 1% MSO + 2.5% ammoniumsulfate
  % Herbicidal activity: 40%
ERICA [4]; B-1 12.5 g ai/ha, height 12.5-25 cm, field, 140 l/ha water, 1% MSO + 2.5% ammoniumsulfate
  % Herbicidal activity: 73%
ERICA [4]; ERICA, height 5-10 cm, B-1 solo 25 g ai/ha, 1% v/v MSO and 1% AMS (ammonium sulfate)
  % Herbicidal activity: 90%
POAAN; B-1 12.5 g ai/ha, 21 DAT, growth stage 55-65, height 10-15 cm, field, 140 l/ha water, 1% MSO + 2.5% ammoniumsulfate
  % Herbicidal activity: 18%
POAAN; POAAN, height 2.5-4 cm, B-1 solo 25 g ai/ha, 7 DAT, 1% v/v MSO
  % Herbicidal activity: 12%
SETIT
  % Herbicidal activity: 23%
[5]; B-1 25 g ai/ha, 25 DAT, growth stage 14-15, field, 0.25 l/ha Dash MSO Max ®
  % Herbicidal activity: 3%
[5]; SORVU* (non-PPOi herbicide tolerant), height 21-31 cm, B-1 solo 25 g ai/ha, 22 DAT, 1% v/v MSO
  % Herbicidal activity: 13%
STEME
  % Herbicidal activity: 53%
